ChEMBL document CHEMBL3988442, “University of Dundee, Small-Polar-MMV Screening Library” (2021)
Several values for one entry are separate records, joined by “and”; a condition that tells them apart may be missing. Equal entries are not always repeated.

Columns and labels:
[1] = To identify inhibition of the IFN signalling (Jak-Stat) pathway via expression of an eGFP reporter gene under the control of an IFN-stimulated response element (ISRE) containing MxA promoter.; assay type: functional, Homo sapiens
[2] = target: Chromo domain-containing protein 1 (Saccharomyces cerevisiae (strain ATCC 204508 / S288c) (Baker's yeast), UniProt P32657); test: ScCHD-1 Enzyme Inhibition Assay; assay type: functional
Chain of Chromo domain-containing protein 1 (P32657 whole entry, the tested form may be a part): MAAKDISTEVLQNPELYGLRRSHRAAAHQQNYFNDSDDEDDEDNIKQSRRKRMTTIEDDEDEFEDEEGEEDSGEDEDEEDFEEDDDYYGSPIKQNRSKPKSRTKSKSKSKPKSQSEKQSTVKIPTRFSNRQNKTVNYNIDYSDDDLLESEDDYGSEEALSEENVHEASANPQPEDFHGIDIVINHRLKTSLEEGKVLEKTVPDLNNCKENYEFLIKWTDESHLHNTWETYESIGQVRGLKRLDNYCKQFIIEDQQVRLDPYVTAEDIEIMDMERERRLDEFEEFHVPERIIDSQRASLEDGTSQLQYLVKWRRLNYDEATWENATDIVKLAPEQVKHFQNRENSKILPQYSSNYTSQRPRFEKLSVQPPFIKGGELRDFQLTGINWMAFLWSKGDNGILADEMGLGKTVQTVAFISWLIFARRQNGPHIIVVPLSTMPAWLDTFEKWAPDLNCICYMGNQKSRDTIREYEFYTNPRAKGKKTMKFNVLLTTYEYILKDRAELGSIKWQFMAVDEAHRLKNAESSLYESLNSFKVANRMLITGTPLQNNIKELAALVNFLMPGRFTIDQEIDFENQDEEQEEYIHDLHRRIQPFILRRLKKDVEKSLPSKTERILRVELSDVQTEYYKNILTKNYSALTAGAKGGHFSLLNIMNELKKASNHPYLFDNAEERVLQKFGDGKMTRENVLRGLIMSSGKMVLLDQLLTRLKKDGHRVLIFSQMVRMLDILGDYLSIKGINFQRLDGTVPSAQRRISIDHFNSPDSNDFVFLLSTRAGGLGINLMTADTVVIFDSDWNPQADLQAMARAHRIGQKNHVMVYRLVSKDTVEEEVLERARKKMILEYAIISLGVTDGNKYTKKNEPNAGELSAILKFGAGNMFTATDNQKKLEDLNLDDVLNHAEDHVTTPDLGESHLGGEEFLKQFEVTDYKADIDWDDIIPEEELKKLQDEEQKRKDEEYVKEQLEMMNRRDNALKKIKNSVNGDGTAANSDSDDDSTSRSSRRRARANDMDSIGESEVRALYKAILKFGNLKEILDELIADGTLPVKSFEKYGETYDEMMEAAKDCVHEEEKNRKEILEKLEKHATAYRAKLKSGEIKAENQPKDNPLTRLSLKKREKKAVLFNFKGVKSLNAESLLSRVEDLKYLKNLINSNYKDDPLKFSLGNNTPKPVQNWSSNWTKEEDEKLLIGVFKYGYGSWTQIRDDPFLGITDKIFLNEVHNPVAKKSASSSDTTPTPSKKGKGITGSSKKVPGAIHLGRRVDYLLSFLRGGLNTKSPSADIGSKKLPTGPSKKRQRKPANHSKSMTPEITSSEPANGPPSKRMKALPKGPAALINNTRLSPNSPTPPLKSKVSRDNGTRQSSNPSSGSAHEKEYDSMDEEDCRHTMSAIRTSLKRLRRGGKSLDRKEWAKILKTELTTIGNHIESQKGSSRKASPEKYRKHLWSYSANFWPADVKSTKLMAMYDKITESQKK

Proteasome subunit beta = target: T1, Proteasome subunit beta (Trypanosoma cruzi, UniProt O96673); test: Trypanosoma cruzi proteasome chymotrypsin-like activity (TcProtChymo) assay.; assay type: functional
T1 sequence (O96673 whole entry): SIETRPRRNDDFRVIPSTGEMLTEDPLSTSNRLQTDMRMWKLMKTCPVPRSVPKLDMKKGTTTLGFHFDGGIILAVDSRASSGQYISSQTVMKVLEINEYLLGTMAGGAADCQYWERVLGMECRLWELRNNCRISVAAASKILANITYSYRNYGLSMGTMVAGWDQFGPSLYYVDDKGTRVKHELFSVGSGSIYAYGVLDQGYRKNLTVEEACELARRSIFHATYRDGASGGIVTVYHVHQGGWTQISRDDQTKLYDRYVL

[3] = Trypanosoma cruzi proteasome luciferase counter-screen; assay type: functional, N/A
Leishmania donovani = test: Leishmania intramacrophage assay; assay type: functional, organism-based; settings: for IC50: Leishmania donovani
[4] = In vitro enzyme assay to detect hydrolysis of chlorophenol red-beta-D-[…] directly proportional to the number of Toxoplasma stably expressing beta-galactosidase; assay type: functional, organism-based, Toxoplasma gondii; settings: Toxoplasma gondii
Schistosoma mansoni = test: High throughput screening of compounds against Schistosoma mansoni motility; assay type: functional; parameters: dose or concentration left out as unconfirmed
Lysine--tRNA ligase = Lysine--tRNA ligase (Plasmodium falciparum (isolate 3D7), UniProt Q8IDJ8); test: Pf-KRS-1 (Lysyl-RNA Synthetase-1, KRS-1, cytosolic KRS) from Plasmodium falciparum. Inhibitor assay, 384 well plate, luminescence read.; assay type: functional
Chain of Lysine--tRNA ligase (Q8IDJ8 whole entry): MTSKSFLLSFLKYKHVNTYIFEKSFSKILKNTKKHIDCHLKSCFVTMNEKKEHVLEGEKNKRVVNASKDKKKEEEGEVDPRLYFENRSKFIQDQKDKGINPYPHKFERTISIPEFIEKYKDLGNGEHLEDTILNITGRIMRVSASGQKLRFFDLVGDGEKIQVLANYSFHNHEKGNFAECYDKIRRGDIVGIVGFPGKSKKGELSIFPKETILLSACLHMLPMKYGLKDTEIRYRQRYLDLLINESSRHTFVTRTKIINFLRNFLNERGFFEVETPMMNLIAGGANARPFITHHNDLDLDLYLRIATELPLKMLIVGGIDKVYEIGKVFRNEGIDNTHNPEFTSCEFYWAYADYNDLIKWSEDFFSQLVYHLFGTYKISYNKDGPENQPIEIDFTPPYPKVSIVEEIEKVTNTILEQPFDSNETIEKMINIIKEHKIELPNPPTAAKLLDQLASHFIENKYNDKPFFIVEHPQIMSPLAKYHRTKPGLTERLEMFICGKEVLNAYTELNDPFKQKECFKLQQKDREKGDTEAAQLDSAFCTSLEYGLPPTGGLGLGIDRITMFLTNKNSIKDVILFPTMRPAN

[5] = target: Polyketide synthase Pks13 (Mycobacterium tuberculosis (strain ATCC 25618 / H37Rv), UniProt I6X8D2); test: Mycobacterium tuberculosis Polyketide synthase 13 Thioesterase (PKS13); assay type: functional
Chain of Polyketide synthase Pks13 (I6X8D2 whole entry): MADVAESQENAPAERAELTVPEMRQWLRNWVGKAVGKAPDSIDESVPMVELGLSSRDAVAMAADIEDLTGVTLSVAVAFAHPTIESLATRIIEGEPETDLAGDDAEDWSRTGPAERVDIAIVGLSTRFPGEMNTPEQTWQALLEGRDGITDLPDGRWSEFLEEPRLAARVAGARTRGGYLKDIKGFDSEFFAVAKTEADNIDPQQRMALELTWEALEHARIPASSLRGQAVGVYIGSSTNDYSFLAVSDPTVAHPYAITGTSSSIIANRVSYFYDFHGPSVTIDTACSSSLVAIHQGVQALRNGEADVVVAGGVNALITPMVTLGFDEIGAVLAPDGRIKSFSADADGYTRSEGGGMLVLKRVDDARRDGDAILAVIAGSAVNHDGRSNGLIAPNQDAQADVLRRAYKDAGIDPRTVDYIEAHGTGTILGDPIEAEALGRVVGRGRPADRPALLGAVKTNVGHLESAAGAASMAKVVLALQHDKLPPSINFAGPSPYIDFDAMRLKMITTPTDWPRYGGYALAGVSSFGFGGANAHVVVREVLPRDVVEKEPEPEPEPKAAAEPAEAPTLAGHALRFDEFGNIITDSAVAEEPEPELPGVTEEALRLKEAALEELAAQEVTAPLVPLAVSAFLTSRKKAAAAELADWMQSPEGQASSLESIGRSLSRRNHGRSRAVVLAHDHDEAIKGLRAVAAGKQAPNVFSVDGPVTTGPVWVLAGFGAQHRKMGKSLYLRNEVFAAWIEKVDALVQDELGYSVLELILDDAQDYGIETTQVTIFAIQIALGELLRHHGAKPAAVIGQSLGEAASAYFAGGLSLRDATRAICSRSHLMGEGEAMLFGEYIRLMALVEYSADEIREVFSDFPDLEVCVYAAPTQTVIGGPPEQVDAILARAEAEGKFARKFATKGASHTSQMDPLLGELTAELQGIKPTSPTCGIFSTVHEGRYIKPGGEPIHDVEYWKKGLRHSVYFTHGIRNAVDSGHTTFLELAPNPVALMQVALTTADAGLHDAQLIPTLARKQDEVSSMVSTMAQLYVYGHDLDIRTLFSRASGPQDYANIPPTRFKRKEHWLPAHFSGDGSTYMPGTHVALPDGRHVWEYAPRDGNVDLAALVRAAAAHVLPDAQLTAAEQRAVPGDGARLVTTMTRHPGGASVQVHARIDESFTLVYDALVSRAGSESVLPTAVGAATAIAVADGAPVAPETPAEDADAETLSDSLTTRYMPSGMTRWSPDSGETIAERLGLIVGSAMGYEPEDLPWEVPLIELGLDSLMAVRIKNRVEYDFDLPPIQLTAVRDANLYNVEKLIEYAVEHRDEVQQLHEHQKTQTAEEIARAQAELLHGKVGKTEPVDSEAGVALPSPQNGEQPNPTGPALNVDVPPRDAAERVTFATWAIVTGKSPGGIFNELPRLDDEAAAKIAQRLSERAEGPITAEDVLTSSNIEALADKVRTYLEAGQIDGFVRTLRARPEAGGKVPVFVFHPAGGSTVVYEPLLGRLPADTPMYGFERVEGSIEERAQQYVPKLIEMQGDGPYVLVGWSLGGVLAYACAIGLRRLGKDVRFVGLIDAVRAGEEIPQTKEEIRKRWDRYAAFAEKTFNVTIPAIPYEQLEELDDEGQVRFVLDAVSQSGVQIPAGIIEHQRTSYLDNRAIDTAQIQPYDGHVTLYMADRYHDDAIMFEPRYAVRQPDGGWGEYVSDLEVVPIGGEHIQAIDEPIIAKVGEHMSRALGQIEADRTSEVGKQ

ClpP1P2 = ClpP1P2 (Mycobacterium tuberculosis (strain ATCC 25618 / H37Rv), UniProt P9WPC3+P9WPC5); test: in vitro assay to detect presence of AMC directly proportional to the activity of ClpP1P2. GHDDI collaboration.; assay type: functional
Chain of ClpP1P2 (P9WPC5 whole entry): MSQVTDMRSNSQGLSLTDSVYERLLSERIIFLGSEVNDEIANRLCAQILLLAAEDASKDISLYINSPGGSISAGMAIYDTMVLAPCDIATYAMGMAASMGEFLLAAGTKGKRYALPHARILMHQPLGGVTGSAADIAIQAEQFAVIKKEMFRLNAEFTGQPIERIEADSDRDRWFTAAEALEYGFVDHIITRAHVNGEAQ
Chain of ClpP1P2 (P9WPC3 whole entry): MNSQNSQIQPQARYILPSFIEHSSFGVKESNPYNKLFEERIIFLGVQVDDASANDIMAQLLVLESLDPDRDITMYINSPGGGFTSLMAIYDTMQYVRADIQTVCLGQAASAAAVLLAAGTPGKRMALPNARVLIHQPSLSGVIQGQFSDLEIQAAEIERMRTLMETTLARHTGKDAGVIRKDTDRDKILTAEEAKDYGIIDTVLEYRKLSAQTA

| Compound | pIC50 [1] | other results |
| --- | --- | --- |
| COCC1CCCN(C(=O)c2cc(Cn3ccc4ccccc43)[nH]n2)C1 (stereo not given) | < 4.21 | IC50 [2]: > 29.5 µM and 18.8 µM |
| Cc1cc(C(C)C(=O)N2CCCN(Cc3cscn3)CC2)c(C)o1 (stereo not given) |  | IC50 (Proteasome subunit beta): > 100 µM; pIC50 [3]: < 4 |
| COc1cccc(-c2nc(CNCCn3cccn3)cs2)c1 |  | IC50 (Proteasome subunit beta): 13.4 µM and 11.8 µM; pIC50 [3]: 4.359 and 4.346 |
| CS(=O)(=O)c1ccc(NC(=O)N2CCc3sccc3C2)cn1 | 4.408 and 4.389 |  |
| Cc1ccc(NCc2cncc3c2CCN(C(=O)C2CC=CC2)C3)nn1.Cl |  | IC50 (Proteasome subunit beta): > 100 µM; pIC50 [3]: < 4 |
| CN(Cc1ccco1)[C@@H]1CN(C(=O)c2ccnnc2)[C@@H]2CCCO[C@H]12.O=C(O)C(F)(F)F | < 4.21 |  |
| CCOCCCn1c(NC(=O)c2scnc2C)nc2ccccc21 | 4.523 and 4.463 | IC50 [2]: > 29.5 µM |
| COc1ccccc1CNC(=O)C1=NN(c2ccc(C)cc2)C(=O)CN1 | 4.606 and 4.808 | pIC50 (Leishmania donovani): < 4.3 and 4.742; IC50 [4]: 10.8 µM |
| Cc1ccc(C(=O)Nc2cc(C(C)C)n[nH]2)cn1 | 4.606 and 4.922 |  |
| Cl.c1ccc(-c2ccc(C3CNCCO3)nc2)cc1 (stereo not given) |  | IC50 (Proteasome subunit beta): 13.7 µM and 13 µM; pIC50 [3]: 4.18 and 4.164 |
| Cc1nc(C)n(CC2CCCN(c3ncnc4sccc34)C2)n1 (stereo not given) | 5.597 and 5.199 |  |
| CC(C)c1nnc2ccc(N3CCC(C(=O)Nc4nccs4)CC3)nn12 | 5 and 4.933 |  |
| Cc1nc(C)n(C2CCCN(C(=O)c3ccc(N(C)C)nn3)C2)n1 (stereo not given) | < 4.21 |  |
| Cc1cnn(CC2CN(c3ncnc4ccsc34)CCO2)c1 (stereo not given) | 5.764 [middle of 4 runs] | IC50 (Leishmania donovani): > 50.1 µM |
| CN(C)c1ccc(CCCNC(=O)Nc2ccc(C#N)cc2)cc1 | 4.654 and 4.645 |  |
| CC(C)(O)C1CCN(C(=O)Nc2nc(-c3ccccc3)ns2)CC1 | 4.605 and 4.639 |  |
| CC(=O)c1c(F)cccc1N1CCC(Cc2cccnc2)CC1 | 5.268 and 5.138 |  |

| Compound | pIC50 [1] | other results |
| --- | --- | --- |
| CC(C)N(CC(N)=O)Cc1csc(COc2ccc(F)cc2)n1 | 5.121 and 5.081 |  |
| CCn1ncc2c1CCCC2NCc1cc(Cl)c(OC)c(OC)c1 (stereo not given) | 4.746 and 4.672 |  |
| OCC1CCCN1c1cc(NCc2ccc(Cl)s2)ncn1 (stereo not given) | 4.462 and 4.49 |  |
| c1cnn(CC2CN(c3ncnc4ccsc34)CCO2)c1 (stereo not given) | 4.809 and 4.868 |  |
| COc1ccc(C)cc1CN1CCCC1c1noc(C2CC2)n1 (stereo not given) | 4.543 and 4.502 |  |
| COC(=O)c1ccc(S(=O)(=O)NCc2cccnc2N(C)C)cc1 | 4.637 and 5.104 |  |
| Cn1cc(-c2csc(N3CCN(C(=O)OC(C)(C)C)CC3)n2)cn1 | 4.669 and 4.891 | Percent Effect (Schistosoma mansoni): -8.994% |
| CC(=O)c1ccc(N2CCCC(CO)(CCOc3ccccc3)C2)nc1 (stereo not given) | 4.524 and 4.702 |  |
| Clc1ccc2cccnc2c1CN1CCCC1Cn1cncn1 (stereo not given) | 4.696 and 4.448 |  |
| O=C(C1CCN(c2snc3ccccc23)CC1)N1CCCCCC1 | 4.575 and 4.655 |  |
| CN1C(=O)C(C)(C)COc2cc(NS(=O)(=O)Cc3ccccc3)ccc21 | < 4.21 and 4.593 | Percent Effect (Schistosoma mansoni): 31.95% |
| CCOc1ccc(S(=O)(=O)NCc2cccnc2N(C)C)cc1 | 5.549 and 5.242 | IC50 (Leishmania donovani): > 50.1 µM; IC50 (Lysine--tRNA ligase): > 50.1 µM |
| CCc1nc(CN2CCN(c3ncnc4cc(F)ccc34)CC2)no1 | 5.76 [middle of 4 runs] |  |
| COCCN1CCc2cc(C(=O)NCC3CC3)c(NC(C)C)nc2CC1.O=C(O)C(F)(F)F.O=C(O)C(F)(F)F | 5.014 and 5.099 | IC50 [5]: 18.4 µM and 14.5 µM; IC50 (ClpP1P2): > 100 µM |
| CC(C)c1nc(C2CCCN(C(=O)CCCn3cncn3)C2)no1 (stereo not given) | < 4.21 |  |
| CC1CN(CC2CCCCC2)CCN1c1ccc2nncn2n1 (stereo not given) | 4.49 and 4.459 | IC50 [2]: > 29.5 µM; IC50 (ClpP1P2): > 100 µM |
